Assays:
α2 receptors = target: T1, α2 receptors (Rattus norvegicus, UniProt P22909); assay: affinity to α2 receptors (test described by Djop, J. Neurochemistry, 41, p. 710 (1983)); format: binding; settings: α2 receptor; IC means inhibitory concentration
T1 construct: from tissue
T1 sequence (P22909 1-465): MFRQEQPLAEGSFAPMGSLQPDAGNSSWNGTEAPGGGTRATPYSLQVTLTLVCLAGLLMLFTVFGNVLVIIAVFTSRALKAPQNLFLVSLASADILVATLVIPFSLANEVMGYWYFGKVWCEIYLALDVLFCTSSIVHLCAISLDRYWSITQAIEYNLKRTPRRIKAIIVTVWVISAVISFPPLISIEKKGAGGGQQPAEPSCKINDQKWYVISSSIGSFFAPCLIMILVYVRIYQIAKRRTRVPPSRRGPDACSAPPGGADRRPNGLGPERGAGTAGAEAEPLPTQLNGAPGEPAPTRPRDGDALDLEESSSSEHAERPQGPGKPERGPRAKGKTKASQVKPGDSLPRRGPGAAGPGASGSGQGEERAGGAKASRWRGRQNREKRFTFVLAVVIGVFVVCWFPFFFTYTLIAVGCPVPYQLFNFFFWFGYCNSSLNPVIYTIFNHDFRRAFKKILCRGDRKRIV
Text: (§1) The activity of the compounds of the present invention has been confirmed by their affinity to α2 and D1 receptors, according to the tests described by Djop, J. Neurochemistry, 41, p. 710 (1983) and by Billard et al., Life Science, p. 35 (1985).

D1 receptors = target: T2, D1 receptors (Rattus norvegicus, UniProt P18901); assay: affinity to D1 receptors (test described by Billard et al., Life Science, p. 35 (1985)); format: binding; settings: D1 receptor; IC means inhibitory concentration
T2 construct: from tissue
Text: as §1

T2 sequence (P18901 whole entry): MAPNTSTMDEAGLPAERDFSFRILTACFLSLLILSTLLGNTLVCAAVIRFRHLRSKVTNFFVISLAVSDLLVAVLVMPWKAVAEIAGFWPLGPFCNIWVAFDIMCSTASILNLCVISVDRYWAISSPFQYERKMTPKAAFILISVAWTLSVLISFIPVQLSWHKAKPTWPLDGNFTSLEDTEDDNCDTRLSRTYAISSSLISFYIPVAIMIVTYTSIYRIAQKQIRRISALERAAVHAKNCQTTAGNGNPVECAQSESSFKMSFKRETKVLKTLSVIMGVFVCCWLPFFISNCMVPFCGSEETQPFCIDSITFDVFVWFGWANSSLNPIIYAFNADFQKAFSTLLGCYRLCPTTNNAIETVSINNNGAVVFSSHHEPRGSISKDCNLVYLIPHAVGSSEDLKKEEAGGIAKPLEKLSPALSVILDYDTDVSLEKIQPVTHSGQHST

Compound	IC50 (α2 receptors)	IC50 (D1 receptors)
CN1C(CCNC(=O)OCc2ccccc2)CC2c3cccc4[nH]cc(c34)CC21 [Example 8, D-nor-6-methyl-7-benzyloxycarbamoylethyl-ergoline]	40 pM	700 pM
CN1C(CCN2CC(=O)NC2=O)CC2c3cccc4[nH]cc(c34)CC21 [Example 10, D-nor-6-methyl-7-(2,4-dioxo-1-imidazolidinyl-ethyl)-ergoline]	50 pM	400 pM
CCNC(=O)N(CCCN(C)C)C(=O)CC1CC2c3cccc4[nH]cc(c34)CC2N1C [Example 6, D-nor-6-methyl-7[N-(3-dimethylaminopropyl)-N-(ethylcarbamoyl)]-carbamoylmethyl-ergoline]	400 pM	900 pM
